Source: PMC9652379, “Safety evaluations of a synthetic antimicrobial peptide administered intravenously in rats and dogs” (Scientific Reports, 2022)

Test system: rats
Assay: Respiratory function in rats (whole body plethysmography)
Assay type: in vivo, rat
Settings: rats, 15 mg/kg single iv injection, positive control
Procedure: The possible side-effects of SET-M33 on respiratory function were evaluated after administration of the peptide as a single intravenous bolus at doses of 5, 9 and 15 mg/kg with vehicle (eight animals/group). Respiratory rate, tidal volume and minute volume were assessed. As in the case of neurological toxicity and the 4-week toxicity study, again the dose levels were selected on the basis DRF (above). Baclofen, a muscle relaxer and antispasmodic used to treat muscle pain, spasms and stiffness in people with multiple sclerosis or spinal cord injury or disease, was used as positive control. It was administered as a single intravenous injection at a dose of 15 mg/kg.
Whole body, bias flow plethysmography equipment was used[51]. Respiratory parameters (respiratory rate, tidal volume and minute volume) were derived from the changes in pressure associated with the warming and humidification of the air breathed in by the animal. This was monitored by specific probes located in the plethysmograph chambers. Bias flow (room air) was set at approximately 2.5 L/min. On a day prior to the first day of dosing, all animals were habituated to the plethysmographs for approximately 2 h. The study was run over 4 days and 10 animals (two from each group) were examined each day. On the day of dosing, the animals were placed in the plethysmographs for pre-dose recording (session 1) of respiratory parameters for 60 min. Groups of 8 rats were then removed from the chambers and dosed by intravenous bolus injection with vehicle, SET-M33 or positive control. Immediately after dosing, the rats were placed in the whole body plethysmographs, where they could move about freely, to continuously record respiratory parameters for 4 h post-dose (undisturbed recording). Immediately after the last post-dose recording, the animals were killed humanely by a rising concentration of carbon dioxide. Death was confirmed by dislocation of the neck. Respiratory parameters were reported at the following time points: 0, 30, 60, 90, 120, 150, 180, 210 and 240 min. Time 0 coincided with the mean value of the last 20 min of data recorded in the 60-min pre-dose period. All other time points were the mean of 10-min recordings (an average of every 10 breaths) around each time point. Each post-dose time point was analysed separately by analysis of covariance. Factors in the model were group and day of data collection, with pre-dose values as covariate.

NCC(CC(=O)O)c1ccc(Cl)cc1 (centres unmarked) [Baclofen, reference compound]
respiratory rate vs vehicle: sharp, statistically significant decrease | tidal volume and minute volume vs vehicle: sharp, statistically significant increases
